Data from article PMC12116762, “Topobexin targets the Topoisomerase II ATPase domain for beta isoform-selective inhibition and anthracycline cardioprotection” (Nature Communications, 2025).

How the values were obtained:
recombinant human TOP2A = target: T1, recombinant human TOP2A (Homo sapiens, UniProt P11388); assay: In vitro ATPase activity of TOP2A (coupled assay); type: biochemical; details: n=3
T1 construct: Using recombinant full-length human TOP2A and TOP2B enzymes; YFP (N, cleaved yes); made in house; host or cells: HEK293F
T1 sequence (P11388 whole entry): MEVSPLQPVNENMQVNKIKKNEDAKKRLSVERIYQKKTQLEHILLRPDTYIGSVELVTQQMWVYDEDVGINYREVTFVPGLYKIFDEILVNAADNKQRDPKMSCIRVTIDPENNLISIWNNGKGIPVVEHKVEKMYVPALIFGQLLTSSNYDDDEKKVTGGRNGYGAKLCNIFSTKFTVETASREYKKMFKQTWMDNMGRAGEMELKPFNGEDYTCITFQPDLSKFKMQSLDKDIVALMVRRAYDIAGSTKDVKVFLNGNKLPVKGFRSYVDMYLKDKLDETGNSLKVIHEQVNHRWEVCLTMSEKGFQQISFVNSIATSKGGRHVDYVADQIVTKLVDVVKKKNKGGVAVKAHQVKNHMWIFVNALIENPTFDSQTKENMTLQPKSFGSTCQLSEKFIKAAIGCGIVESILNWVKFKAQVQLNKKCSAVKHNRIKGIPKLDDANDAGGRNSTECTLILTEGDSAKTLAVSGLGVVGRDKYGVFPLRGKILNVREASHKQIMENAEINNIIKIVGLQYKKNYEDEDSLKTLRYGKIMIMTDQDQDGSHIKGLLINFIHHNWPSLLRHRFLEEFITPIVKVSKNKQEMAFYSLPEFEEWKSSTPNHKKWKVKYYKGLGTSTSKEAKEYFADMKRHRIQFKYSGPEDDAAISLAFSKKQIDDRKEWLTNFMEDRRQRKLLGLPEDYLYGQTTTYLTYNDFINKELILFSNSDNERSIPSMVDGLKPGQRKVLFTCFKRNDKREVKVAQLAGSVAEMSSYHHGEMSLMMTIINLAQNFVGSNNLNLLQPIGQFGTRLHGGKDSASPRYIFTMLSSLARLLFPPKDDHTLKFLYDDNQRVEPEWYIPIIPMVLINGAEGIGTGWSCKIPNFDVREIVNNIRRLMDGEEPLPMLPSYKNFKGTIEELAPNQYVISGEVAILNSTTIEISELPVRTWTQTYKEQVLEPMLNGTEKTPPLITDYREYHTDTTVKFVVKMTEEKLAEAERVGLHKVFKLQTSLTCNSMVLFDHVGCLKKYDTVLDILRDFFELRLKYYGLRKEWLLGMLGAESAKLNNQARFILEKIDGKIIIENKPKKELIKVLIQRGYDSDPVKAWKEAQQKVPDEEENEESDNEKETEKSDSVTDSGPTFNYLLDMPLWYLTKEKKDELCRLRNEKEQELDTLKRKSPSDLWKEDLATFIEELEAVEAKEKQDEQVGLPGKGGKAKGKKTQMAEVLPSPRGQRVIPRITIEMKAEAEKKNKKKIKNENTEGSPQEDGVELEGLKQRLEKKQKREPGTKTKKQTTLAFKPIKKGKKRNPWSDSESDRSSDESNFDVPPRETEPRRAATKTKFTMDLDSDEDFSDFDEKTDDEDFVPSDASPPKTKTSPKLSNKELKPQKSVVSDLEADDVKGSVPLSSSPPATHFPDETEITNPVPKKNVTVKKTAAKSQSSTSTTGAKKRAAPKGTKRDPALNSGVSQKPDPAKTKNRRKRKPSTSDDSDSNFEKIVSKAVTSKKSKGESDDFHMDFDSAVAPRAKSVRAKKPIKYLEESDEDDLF
Protocol: (§1) Topoisomerase proteins were diluted to 500 nM in storage buffer containing 20 mM HEPES pH 7.5, 500 mM NaCl, 0.5 mM TCEP, 25% glycerol, and 0.2 mg/mL BSA prior to use. A coupled assay was used to measure TOP2-catalyzed ATP hydrolysis in vitro[37] in Costar 96-well plates (Corning Incorporated). […] Reaction plates were pre-warmed to 30 °C for 5 min and ATP was added last to initiate the reaction. The reaction plate was placed in a CLARIOstarPlus plate reader (BMG Labtech) to measure NADH fluorescence at 30 °C every 30 s over 120 cycles using a 340-60 excitation filter and a 480-100 emission filter. Background fluorescence signals calculated from wells containing no ATP were subtracted from each measurement. The slope of NADH fluorescence decay in each well was calculated using the MARS software (BMG Labtech) and reaction wells that lacked topoisomerase inhibitor to account for photobleaching of NADH fluorescence served as background subtraction. Each presented data point was obtained from distinct sample. Values were normalized to untreated controls and plotted as a function of inhibitor concentration to determine IC50 values using Prism 9 (GraphPad).

recombinant human TOP2B = target: T2, recombinant human TOP2B (Homo sapiens, UniProt Q02880); assay: In vitro ATPase activity of TOP2B (coupled assay); type: biochemical; details: for SRbeta (SRTOP2B), TOP2 ATPase activity: TOP2A IC50 divided by TOP2B IC50; for IC50: n=3
T2 construct: Using recombinant full-length human TOP2A and TOP2B enzymes; YFP (N, cleaved yes); made in house; host or cells: HEK293F
T2 sequence (Q02880 1-1621 isoform Q02880-2): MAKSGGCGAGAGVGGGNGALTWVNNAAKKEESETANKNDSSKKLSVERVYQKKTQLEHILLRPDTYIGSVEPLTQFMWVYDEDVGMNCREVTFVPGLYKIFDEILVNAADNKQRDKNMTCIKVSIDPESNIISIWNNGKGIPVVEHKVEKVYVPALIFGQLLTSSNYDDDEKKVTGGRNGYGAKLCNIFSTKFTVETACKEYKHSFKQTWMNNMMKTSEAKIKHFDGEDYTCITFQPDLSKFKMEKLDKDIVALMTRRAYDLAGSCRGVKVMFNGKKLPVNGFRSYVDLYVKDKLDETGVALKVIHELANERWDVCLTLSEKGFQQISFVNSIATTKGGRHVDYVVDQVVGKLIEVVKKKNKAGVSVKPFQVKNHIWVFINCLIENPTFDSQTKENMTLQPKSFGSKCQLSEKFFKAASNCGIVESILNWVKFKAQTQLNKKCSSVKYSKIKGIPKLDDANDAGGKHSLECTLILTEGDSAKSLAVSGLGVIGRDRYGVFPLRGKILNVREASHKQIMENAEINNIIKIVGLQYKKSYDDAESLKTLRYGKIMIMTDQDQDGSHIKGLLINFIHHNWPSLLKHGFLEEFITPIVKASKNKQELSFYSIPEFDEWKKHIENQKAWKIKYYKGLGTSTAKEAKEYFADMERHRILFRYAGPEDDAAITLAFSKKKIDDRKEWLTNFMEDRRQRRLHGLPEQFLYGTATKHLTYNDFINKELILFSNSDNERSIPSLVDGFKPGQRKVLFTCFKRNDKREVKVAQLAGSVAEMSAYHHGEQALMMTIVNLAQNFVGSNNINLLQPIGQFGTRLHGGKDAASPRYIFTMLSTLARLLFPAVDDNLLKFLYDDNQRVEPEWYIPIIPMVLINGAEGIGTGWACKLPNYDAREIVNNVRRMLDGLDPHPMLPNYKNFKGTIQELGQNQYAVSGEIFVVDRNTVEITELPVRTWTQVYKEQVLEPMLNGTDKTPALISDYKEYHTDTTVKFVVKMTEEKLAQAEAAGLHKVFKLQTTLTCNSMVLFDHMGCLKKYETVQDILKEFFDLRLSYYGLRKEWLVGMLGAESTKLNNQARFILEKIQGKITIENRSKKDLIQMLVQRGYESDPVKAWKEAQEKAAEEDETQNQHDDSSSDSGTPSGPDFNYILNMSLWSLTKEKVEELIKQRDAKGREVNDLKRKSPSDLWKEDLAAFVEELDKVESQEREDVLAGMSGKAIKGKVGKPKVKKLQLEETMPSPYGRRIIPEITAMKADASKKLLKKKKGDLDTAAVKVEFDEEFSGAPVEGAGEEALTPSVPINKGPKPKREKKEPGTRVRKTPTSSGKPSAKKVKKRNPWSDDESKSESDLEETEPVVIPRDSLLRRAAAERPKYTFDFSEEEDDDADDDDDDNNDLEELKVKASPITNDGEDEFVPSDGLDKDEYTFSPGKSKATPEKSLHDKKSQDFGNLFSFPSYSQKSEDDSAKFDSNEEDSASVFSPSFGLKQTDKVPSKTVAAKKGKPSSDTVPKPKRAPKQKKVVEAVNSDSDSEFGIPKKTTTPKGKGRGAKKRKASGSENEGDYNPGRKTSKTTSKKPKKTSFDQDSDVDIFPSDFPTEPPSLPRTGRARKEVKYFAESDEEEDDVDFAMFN
Protocol: as §1

[1] = test system: neonatal rat ventricular cardiomyocytes (NVCM); assay: Protection against DAU-induced cytotoxicity (LDH release) in NVCM; type: cell-based; set-up: key to Suppl.Fig.3 DAU-induced cytotoxicity (LDH release) in NVCM, mean of independent replicates / LDH release (DAU-induced cytotoxicity), mean of independent replicates: % of total LDH activity; details: for minimal effective concentration: Rattus norvegicus, Cardiomyocyte, protection against DAU 1.2 µM, n=4, read-out: LEC = lowest effective concentration; for minimal effective concentration / LDH release (protection against DAU), mean of independent replicates: NVCM; for LDH release (protection against DAU), mean of independent replicates: Suppl.Fig.6b
Protocol: (§2) The protective effects of the BNS-22 and newly prepared compounds were evaluated using primary cultures of neonatal rat cardiomyocytes isolated in house as previously described. Hearts isolated from 1- to 3-day-old Wistar rats were minced in buffer (1.2 mM MgSO4 · 7H2O, 116 mM NaCl, 5.3 mM KCl, 1.13 mM NaH2PO4 · H2O, 20 mM 4-(2-hydroxyethyl)-1-piperazine ethanesulfonic acid (HEPES), glucose 1 mg/mL) on ice, then serially digested (20 min, six repetitions) at 37 °C with collagenase type II (60 U/mL, Gibco). After 2 h pre-plating in a 150 mm Petri dish per approximately 20 hearts to minimize non-myocyte contamination, cells were plated in 24-well gelatin-coated plates at a density of 400,000 cells per well. Cells were cultured at 37 °C and 5% CO2 in Dulbecco’s modified Eagle medium (DMEM)/ F12 culture medium supplemented with 10% horse serum, 5% fetal bovine serum (FBS), 20 mM sodium pyruvate, 50 U/mL penicillin, and 50 μg/mL streptomycin. Freshly isolated cells were left for 40 h to attach and form a culture of spontaneously beating cardiomyocytes, then the medium was changed to DMEM/F12 medium supplemented with 5% fetal bovine serum, 20 mM sodium pyruvate, 50 U/mL penicillin, and 50 μg/mL streptomycin. For the experiments, the medium was changed to serum- and pyruvate-free DMEM/F12 with 50 U/mL penicillin and 50 μg/mL streptomycin. Cardiomyocytes were pretreated with BNS-22 or new compounds for 3 h and then coincubated with DAU (1.2 µM) for another 3 h. After the DAU treatment period, the culture medium was exchanged for the drug-free DMEM/F12 with 50 U/mL penicillin and 50 μg/mL streptomycin for the 48 h follow-up. Experiments to determine the inherent toxicity of each compound studied follow the same schedule, only no DAU was added. Subsequently, the culture medium sample was taken from each well for evaluation of lactate dehydrogenase (LDH) activity. The total LDH activity of each sample for normalization was measured after 1 h of incubation at 37 °C in lysis buffer (0.1 M potassium phosphate, 1% Triton X-100, 1 mM dithiothreitol (DTT), 2 mM EDTA, pH 7.8, 15 min in RT). All samples were immediately analyzed in Tris HCl buffer (pH 8.9) containing 35 mM lactic acid and 5 mM NAD^+. The rate of NAD^+ reduction was monitored spectrophotometrically at 340 nm for 2 min. The slope of the linear region was calculated, and the results were expressed as a percentage of the total LDH. Each presented data point was obtained from distinct sample.

[2] = test system: neonatal rat ventricular cardiomyocytes (NVCM); assay: Inherent toxicity (LDH release) in NVCM; type: cell-based; set-up: key to LDH release (inherent toxicity), mean of independent replicates: % of total LDH activity; details: NVCM; for LTC = lowest toxic concentration: compound alone, n=4
Protocol: as §2

[3] = compound alone 0.1 µM, Suppl.Fig.4
[4] = compound alone 1 µM, Suppl.Fig.4
[5] = compound alone 10 µM, Suppl.Fig.4
[6] = compound alone 30 µM, Suppl.Fig.4
[7] = compound alone 0.01 µM, Suppl.Fig.6c
[8] = compound alone 0.1 µM, Suppl.Fig.6c
[9] = compound alone 1 µM, Suppl.Fig.6c
[10] = compound alone 10 µM, Suppl.Fig.6c
[11] = compound alone 30 µM, Suppl.Fig.6c
[12] = compound alone 100 µM, Suppl.Fig.6c

| SMILES | IC50 (recombinant human TOP2A) [nM] | SRbeta (SRTOP2B), TOP2 ATPase activity (recombinant human TOP2B) | IC50 (recombinant human TOP2B) [nM] | minimal effective concentration [1] [µM] | Suppl.Fig.3 DAU-induced cytotoxicity (LDH release) in NVCM, mean of independent replicates ([1]; compound 0.1 µM + DAU 1.2 µM) | Suppl.Fig.3 DAU-induced cytotoxicity (LDH release) in NVCM, mean of independent replicates ([1]; compound 1 µM + DAU 1.2 µM) | Suppl.Fig.3 DAU-induced cytotoxicity (LDH release) in NVCM, mean of independent replicates ([1]; compound 10 µM + DAU 1.2 µM) | LTC = lowest toxic concentration [2] [µM] | LDH release (inherent toxicity), mean of independent replicates [2, 3] | LDH release (inherent toxicity), mean of independent replicates [2, 4] | LDH release (inherent toxicity), mean of independent replicates [2, 5] | Suppl.Fig.3 DAU-induced cytotoxicity (LDH release) in NVCM, mean of independent replicates ([1]; compound 30 µM + DAU 1.2 µM) | LDH release (inherent toxicity), mean of independent replicates [2, 6] | LDH release (protection against DAU), mean of independent replicates ([1]; compound 0.01 µM + DAU 1.2 µM) | LDH release (protection against DAU), mean of independent replicates ([1]; compound 0.1 µM + DAU 1.2 µM) | LDH release (protection against DAU), mean of independent replicates ([1]; compound 1 µM + DAU 1.2 µM) | LDH release (protection against DAU), mean of independent replicates ([1]; compound 10 µM + DAU 1.2 µM) | LDH release (protection against DAU), mean of independent replicates ([1]; compound 30 µM + DAU 1.2 µM) | LDH release (protection against DAU), mean of independent replicates ([1]; compound 100 µM + DAU 1.2 µM) | LDH release (inherent toxicity), mean of independent replicates [2, 7] | further results |
| --- | --- | --- | --- | --- | --- | --- | --- | --- | --- | --- | --- | --- | --- | --- | --- | --- | --- | --- | --- | --- | --- |
| CCCc1cc(=O)oc2c(C(=O)N3CCCc4ccccc43)c(OC)ccc12 [3c] | 1270 | 1.6 | 780 | 1 | 33.8238 | 29.3632 | 23.4291 | > 10 | 16.0204 | 16.3627 | 16.4282 |  |  |  |  |  |  |  |  |  | Suppl.Fig.3 DAU-induced cytotoxicity (LDH release) in NVCM, mean of independent replicates ([1]; compound 3 µM + DAU 1.2 µM): 26.6827; LDH release (inherent toxicity), mean of independent replicates ([2]; compound alone 3 µM, Suppl.Fig.4): 15.3033 |
| CCCOc1ccc2c(CCC)cc(=O)oc2c1C(=O)N1CCCc2ccccc21 [4c] | 1870 | 2.2 | 850 | 0.1 | 37.3488 | 27.8991 | 34.5307 |  | 16.7326 | 16.4897 | 23.8379 | 56.7644 | 34.5318 |  |  |  |  |  |  |  | Suppl.Fig.3 DAU-induced cytotoxicity (LDH release) in NVCM, mean of independent replicates ([1]; compound 0.01 µM + DAU 1.2 µM): 45.7304; Suppl.Fig.3 DAU-induced cytotoxicity (LDH release) in NVCM, mean of independent replicates ([1]; compound 100 µM + DAU 1.2 µM): 78.8192; LDH release (inherent toxicity), mean of independent replicates ([2]; compound alone 0.01 µM, Suppl.Fig.4): 13.5244; LDH release (inherent toxicity), mean of independent replicates ([2]; compound alone 100 µM, Suppl.Fig.4): 48.1102 |
| CCc1cc(=O)oc2c(C(=O)N3CCCc4ccccc43)c(OCCO)ccc12 [5b] | 1420 | 1.0 | 1460 | 10 | 53.5677 | 49.2444 | 40.137 | > 30 | 13.7703 | 14.0098 | 14.5134 | 35.8495 | 14.3714 |  |  |  |  |  |  |  |  |
| CCCc1cc(=O)oc2c(C(=O)N3CCCc4ccccc43)c(OCCN(C)C)ccc12 [compound 7] |  |  |  | 10 |  |  |  |  |  |  |  |  |  | 44.2016 | 45.7696 | 39.8955 | 31.2866 | 33.8072 | 37.6314 | 12.5189 | LDH release (inherent toxicity), mean of independent replicates [2, 8]: 12.4578; LDH release (inherent toxicity), mean of independent replicates [2, 9]: 12.8607; LDH release (inherent toxicity), mean of independent replicates [2, 10]: 14.2154; LDH release (inherent toxicity), mean of independent replicates [2, 11]: 18.2491; LDH release (inherent toxicity), mean of independent replicates [2, 12]: 27.6932 |
| CCCc1cc(=O)oc2c(C(=O)N3CCCc4ccccc43)c(OCCCN3CCCCC3)ccc12 [compound 8] |  |  |  | 1 |  |  |  | 30 |  |  |  |  |  | 40.886 | 39.8568 | 34.126 | 30.5731 | 32.7612 | 39.9555 | 14.7015 | LDH release (inherent toxicity), mean of independent replicates [2, 8]: 13.9677; LDH release (inherent toxicity), mean of independent replicates [2, 9]: 14.1413; LDH release (inherent toxicity), mean of independent replicates [2, 10]: 16.8035; LDH release (inherent toxicity), mean of independent replicates [2, 11]: 21.145; LDH release (inherent toxicity), mean of independent replicates [2, 12]: 29.4802 |
